One assay relates to STAT3. The assay is described as follows: STAT3 reporter gene assay (luciferase), LNCaP stable cell line pSTAT3-TA-luc, IL-6 stimulation. It counts as cell-based, human. The note with it: Homo sapiens. The method in brief:
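LNCaP cells stably carrying pSTAT3-TA-luc were plated 24 h in 3% DCC-FBS medium, then given compound followed by IL-6 (10 ng/mL final) for 24 h at 37 °C. Luciferase was read from lysates, with CellTiter-Glo viability on a duplicate plate. Stimulated 0.1% DMSO wells served as uninhibited control.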

The test system of a further assay is STAT1. As to the kind of experiment: STAT1 reporter gene assay (luciferase), U2OS stable cell line pGL4-STAT1-TA-luc, IFN-γ stimulation. The note with it: Homo sapiens, IFN-γ 50 ng/mL, 8 hours, read-out: IC50 (μM) pSTAT1. The class given is cell-based, human. A digest of the protocol:
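U2OS cells stably carrying a STAT1-driven luciferase reporter were treated with serially diluted compounds plus IFN-γ (50 ng/mL final) for 8 h at 37 °C in 10% FBS medium. Luciferase read after lysis; parallel plate assessed for cytotoxicity by CellTiter-Glo.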
Background: Reporter assays use an easily measured gene product as a stand-in for the process of interest.

Assay [1] has as its system LNCaP prostate cancer cell line. As to the kind of experiment: Cell growth inhibition assay, LNCaP (CellTiter-Glo). The note with it: Homo sapiens; LNCaP, 10,000 cells/well, medium with 10 ng/mL IL-6, 96 hours. The class given is cell-based. On the procedure: (§1) The inhibitory effects of the compounds of the present invention against the growth of cancer cells were evaluated as shown below. The cancer cell lines including prostate cancer cell lines (LNCaP, DU-145), stomach cancer cell line (NCI-N87), and breast cancer cell lines (MDA-MB-468) were cultured under the protocol provided by each supplier. A medium supplemented with 10 ng/mL of IL-6 was used for LNCaP, a prostate cancer cell line, when treated with a drug. Each type of cells to be used in experiments was sub-cultured in a 96-well plate by counting the exact number of cells using Tali™ Image-based Cytometer (Life Technologies). In a 96-well plate, DU-145 was employed with 3,000 cells/well; NCI-N87 was employed with 5,000 cells/well; and LNCaP and MDA-MB-468 were employed with 10,000 cells/well. The cells were treated with the compounds listed in Examples which were diluted in various concentrations. Upon completion of the compounds treatment, LNCaP, DU-145, NCI-N87 cells were cultured at 37° C. under 5% CO2 for 96 hours, and MDA-MB-468 cells were cultured at 37° C. in air for 96 hours. Subsequently, the cells were observed under microscope and drug precipitation and particular findings were investigated and recorded. And then, the 96-well plate was placed at room temperature for 30 minutes, added with 20 pt/well of CellTiter-Glo solution (Cat No. G7573, Promega) and shaken for 10 minutes, followed by being subjected to the measurement using PHERAstar™ microplate reader (BMG LABTECH) according to the supplier's general luminometer protocol. Wells where only culture liquid added without cell plating were used as a negative control, whereas wells where culture liquid containing 0.1% DMSO instead of the compounds listed in Examples were used as a positive control.
A general note: ATP-based viability assays read luminescence as a measure of living cells.

In assay [2] the test system is DU-145 prostate cancer cell line. As to the kind of experiment: Cell growth inhibition assay, DU-145 (CellTiter-Glo). The class given is cell-based. To be noted: Homo sapiens; DU-145, 3,000 cells/well, 96 hours. On the procedure:
as §1

The values that follow come from US10023591B2, “Heterocyclic derivatives and use thereof” (C&C RESEARCH LABORATORIES, priority 2014, dated 2018).

As a reminder, the IC50 is the concentration at which inhibition is half-maximal. As for `CC(C)(c1ccc(Cl)cc1)c1cc(Cl)cc(NC(=O)c2cc3cc(C(C)(C)S(C)(=O)=O)c(Cl)cc3s2)c1` [Example 23, 6-chloro-N-(3-chloro-5-(2-(4-chlorophenyl)propan-2-yl)phenyl)-5-(2-(methylsulfonyl)propan-2-yl)benzo[b]thiophene-2-carboxamide], the IC50 with STAT3 is 0.084 µM; with STAT1, more than 50 µM; in assay [1], 0.8 µM; in assay [2] it was 0.04 µM.

With `CN(c1cc(Cl)cc(NC(=O)c2cc3cc(C(C)(C)S(C)(=O)=O)ccc3s2)c1)c1ccc(F)cc1F` [Example 98, N-(3-chloro-5-((2,4-difluorophenyl)(methyl)amino)phenyl)-5-(2-(methylsulfonyl)propan-2-yl)benzo[b]thiophene-2-carboxamide], the IC50 was 0.031 µM with STAT3, more than 50 µM with STAT1, 0.031 µM in assay [1] and 0.0066 µM in assay [2].

Regarding `O=C(Nc1cc(Cl)cc(Oc2ccc(Cl)cc2)c1)c1cc2cc(CS(=O)(=O)C(F)(F)F)ccc2s1` [Example 42, N-(3-chloro-5-(4-chlorophenoxy)phenyl)-5-(((trifluoromethyl)sulfonyl)methyl)benzo[b]thiophene-2-carboxamide], the IC50 with STAT3 was 1.25 µM; in the assay on STAT1 it was more than 50 µM; in assay [1], more than 1.1 µM; in assay [2], more than 1.1 µM.

As for `CC(C)(c1ccc2sc(C(=O)Nc3cc(Cl)cc(Oc4ccc(Cl)cc4)n3)cc2c1)S(C)(=O)=O` [Example 66, N-(4-chloro-6-(4-chlorophenoxy)pyridin-2-yl)-5-(2-(methylsulfonyl)propan-2-yl)benzo[b]thiophene-2-carboxamide], the IC50 in the assay on STAT3 is 0.18 µM; in the assay on STAT1 it was more than 50 µM; in assay [1] it was 0.26 µM; in assay [2] it was 0.17 µM.

Take `CC(C)Oc1cc(OC(F)(F)F)cc(C(C)(C)c2cc(Cl)cc(NC(=O)c3cc4cc(CS(C)(=O)=O)ccc4s3)c2)c1` [Example 16, N-(3-chloro-5-(2-(3-isopropoxy-5-(trifluoromethoxy)phenyl)propan-2-yl)phenyl)-5-((methylsulfonyl)methyl)benzo[b]thiophene-2-carboxamide]: the half-inhibitory concentration (IC50) was 0.0057 µM with STAT3, more than 50 µM in the assay on STAT1, 0.0022 µM in assay [1] and 0.0018 µM in assay [2].

Take `CS(=O)(=O)C1(c2ccc3sc(C(=O)Nc4cc(Cl)cc(Oc5ccc(Cl)cc5)c4)cc3c2)CCOCC1` [Example 56, N-(3-chloro-5-(4-chlorophenoxy)phenyl)-5-(4-(methylsulfonyl)tetrahydro-2H-pyran-4-yl)benzo[b]thiophene-2-carboxamide]: the IC50 in the assay on STAT3 was 3.3 µM; with STAT1, more than 50 µM; in assay [1], more than 1.1 µM; in assay [2], more than 1.1 µM.

Consider `CN(c1ccc(Cl)cc1)c1cc(Cl)cc(NC(=O)c2cc3cc(C(C)(C)S(C)(=O)=O)ccc3s2)c1` [Example 99, N-(3-chloro-5-((4-chlorophenyl)(methyl)amino)phenyl)-5-(2-(methylsulfonyl)propan-2-yl)benzo[b]thiophene-2-carboxamide], for which the concentration for half-maximal inhibition (IC50) in the assay with STAT3 was 0.11 µM; with STAT1 it was more than 50 µM; in assay [1] it was 0.14 µM; in assay [2], 0.046 µM.

As for `COc1cc(NC(=O)c2cc3cc(C(C)(C)S(C)(=O)=O)ccc3s2)cc(Oc2ccc(Cl)cc2)c1` [Example 46, N-(3-(4-chlorophenoxy)-5-methoxyphenyl)-5-(2-(methylsulfonyl)propan-2-yl)benzo[b]thiophene-2-carboxamide], the IC50 in the assay with STAT3 is 0.054 µM; in the assay with STAT1, more than 50 µM; in assay [1] it was 0.11 µM; in assay [2] it was 0.07 µM.

Turning to `CC(C)(c1ccc(Cl)cc1)c1cc(Cl)cc(NC(=O)c2cc3cc(C(C)(C)S(C)(=O)=O)ccc3s2)c1` [Example 22, N-(3-chloro-5-(2-(4-chlorophenyl)propan-2-yl)phenyl)-5-(2-(methylsulfonyl)propan-2-yl)benzo[b]thiophene-2-carboxamide], the IC50 with STAT3 was 0.015 µM; with STAT1 it was more than 50 µM; in assay [1], 0.024 µM; in assay [2], 0.014 µM.

In the case of `CC(C)(c1ccc2sc(C(=O)Nc3cc(Cl)cc(Oc4ccc(F)c(F)c4)c3)cc2c1)S(C)(=O)=O` [Example 52, N-(3-chloro-5-(3,4-difluorophenoxy)phenyl)-5-(2-(methylsulfonyl)propan-2-yl)benzo[b]thiophene-2-carboxamide], the IC50 in the assay with STAT3 was 0.025 µM; in the assay with STAT1, more than 50 µM; in assay [1], 0.022 µM; in assay [2] it was 0.015 µM.

For `CC(C)(c1ccc2sc(C(=O)Nc3cc(Cl)cc(Oc4ccc(F)cc4)c3)cc2c1)S(C)(=O)=O` [Example 43, N-(3-chloro-5-(4-fluorophenoxy)phenyl)-5-(2-(methylsulfonyl)propan-2-yl)benzo[b]thiophene-2-carboxamide], the IC50 with STAT3 is 0.023 µM; with STAT1, more than 50 µM; in assay [1], 0.032 µM; in assay [2], 0.011 µM.

In the case of `CS(=O)(=O)Cc1ccc2sc(C(=O)Nc3cc(Cl)cc(-c4ccc(F)cc4F)c3)cc2c1` [Example 95, N-(5-chloro-2′,4′-difluoro-[1,1′-biphenyl]-3-yl)-5-((methylsulfonyl)methyl)benzo[b]thiophene-2-carboxamide], the IC50 in the assay with STAT3 is 0.028 µM; in the assay on STAT1, 35.7 µM; in assay [1] it was 0.023 µM; in assay [2] it was 0.013 µM.

In the case of `CC(C)(c1ccc(F)cc1)c1cc(Cl)cc(NC(=O)c2cc3cc(C(C)(C)S(C)(=O)=O)c(F)cc3s2)c1` [Example 19, N-(3-chloro-5-(2-(4-fluorophenyl)propan-2-yl)phenyl)-6-fluoro-5-(2-(methylsulfonyl)propan-2-yl)benzo[b]thiophene-2-carboxamide], the IC50 in the assay on STAT3 is 0.029 µM; with STAT1 it was more than 50 µM; in assay [1], 0.043 µM; in assay [2], 0.022 µM.

With `COc1cc(F)cc(Oc2cc(Cl)cc(NC(=O)c3cc4cc(C(C)(C)S(C)(=O)=O)ccc4s3)c2)c1` [Example 53, N-(3-chloro-5-(3-fluoro-5-methoxyphenoxy)phenyl)-5-(2-(methylsulfonyl)propan-2-yl)benzo[b]thiophene-2-carboxamide], the IC50 in the assay with STAT3 was 0.033 µM; in the assay with STAT1, more than 50 µM; in assay [1], 0.037 µM; in assay [2], 0.02 µM.

For `CC(C)(c1ccc2sc(C(=O)Nc3cc(Oc4ccc(Cl)cc4)cc(Cl)n3)cc2c1)S(C)(=O)=O` [Example 63, N-(6-chloro-4-(4-chlorophenoxy)pyridin-2-yl)-5-(2-(methylsulfonyl)propan-2-yl)benzo[b]thiophene-2-carboxamide], the IC50 is 0.034 µM with STAT3, more than 50 µM with STAT1, 0.046 µM in assay [1] and 0.032 µM in assay [2].

For the molecule `CC(C)(c1ccc2sc(C(=O)Nc3cc(Cl)cc(Oc4cc(F)cc(Cl)c4)c3)cc2c1)S(C)(=O)=O` [Example 47, N-(3-chloro-5-(3-chloro-5-fluorophenoxy)phenyl)-5-(2-(methylsulfonyl)propan-2-yl)benzo[b]thiophene-2-carboxamide], the IC50 in the assay with STAT3 is 0.022 µM; in the assay on STAT1, more than 50 µM; in assay [1] it was 0.02 µM; in assay [2], 0.016 µM.

As for `CC(C)(c1ccc(Cl)cc1)c1cc(NC(=O)c2cc3cc(C(C)(C)S(C)(=O)=O)ccc3s2)[nH]n1` [Example 89, N-(3-(2-(4-chlorophenyl)propan-2-yl)-1H-pyrazol-5-yl)-5-(2-(methylsulfonyl)propan-2-yl)benzo[b]thiophene-2-carboxamide], the IC50 in the assay with STAT3 was 0.14 µM; in the assay with STAT1, more than 50 µM; in assay [1], 0.24 µM; in assay [2], 0.11 µM.

Take `CC(C)(c1ccc(Cl)cc1)c1cc(Cl)cc(NC(=O)c2cc3cc(C(F)S(C)(=O)=O)ccc3s2)c1` (stereo not drawn) [Example 25, N-(3-chloro-5-(2-(4-chlorophenyl)propan-2-yl)phenyl)-5-(fluoro(methylsulfonyl)methyl)benzo[b]thiophene-2-carboxamide]: the half-maximal inhibitory concentration (IC50) in the assay with STAT3 is 0.034 µM; with STAT1, more than 50 µM; in assay [1] it was 0.072 µM; in assay [2] it was 0.066 µM.
